Laboratory results published in US20190256491A1, “Methods For Treatment Of 16P11.2 Microdeletion Syndrome” (Massachusetts Institute of Technology, priority 2012, published 2019).
Entries after “also recorded” stand apart in the source; their conditions may differ.

Key:
[1] = test system: mGluR-LTD at the Schaffer collateral-CA1 synapse of hippocampal slices; assay: DHPG-LTD, hippocampal slice electrophysiology; design: species or system mouse; settings: CHX 60 μM, 40 min, DHPG 50 μM, 5 min
Experimental: (§1) Electrophysiological experiments were performed at the Schaffer collateral-CA1 synapse of hippocampal slices prepared from p28 to p35 male mice using experimental protocols as previously described ((Auerbach et al., 2011)). Dorsal hippocampal slices (400 μm thick) were used in all recordings. Input-output functions were determined by incrementally (10 μA to 100 μA) stimulating the Schaffer collaterals and recording the resulting fEPSP response. Paired-pulse facilitation was conducted by applying two stimulus pulses at varying inter-stimulus-intervals (ISI). Facilitation was measured by taking the ratio of the fEPSP slope in response to stimulus 2 to that of stimulus 1. […] For paired-pulse low frequency stimulation (PP-LFS) slices were incubated in ACSF containing APV (50 μM)±CHX for 30 min. mGluR5-LTD was then induced by application (20 min) of paired-pulse stimulation (50 ms ISI) at 1 Hz, and synaptic responses were recorded for an additional 60 min.
(§2) Group I mGluR mediated synaptic plasticity was assessed. mGluR-LTD can be induced either by chemical induction by pharmacological stimulation of mGluRs (DHPG-LTD) or electrical induction by applying a series of paired pulses at about 50 ms interval (PP-LFS-LTD). […]

[2] = test system: mGluR5-LTD at the Schaffer collateral-CA1 synapse of hippocampal slices; assay: PP-LFS LTD, hippocampal slice electrophysiology; design: species or system mouse; settings: ACSF with APV 50 μM ± CHX 30 min
Experimental: as §1, §2

[3] = test system: chr7qF3 mutant mice (mouse model of human chr16p11.2 microdeletion) and WT mice; assay: Inhibitory avoidance extinction (IAE) test; type: in vivo
Experimental: Inhibitory avoidance extinction (IAE) tests were performed as previously described with modification ((Dolen et al., 2007)). Briefly, 4-6 weeks male mice were divided into four groups according to genotype and CTEP treatment: WT+vehicle, WT+CTEP, Mutant+vehicle, and Mutant+CTEP. CTEP or vehicle was administered by oral gavage every other day for 4 weeks. The last dose was given about 16-20 hours prior to the training session. IA tests were conducted in a two-chambered Perspex box consisting of a lighted side and a dark side separated by a trap door. On the training day, mice were habituated in the behavioral room for about 2 hours before training. During training, a mouse was placed into the lit side of the chamber and allowed to explore for about 30 seconds before the trap door was opened. The ensuing time spent by the animal in the light chamber before entering the dark chamber was recorded as latency. Immediately after fully entering the dark side of the camber, subjects were given about a 2 sec mild foot shock (about 0.4 mA) and allowed to spend an additional 60 sec before being returned to their home-cage. The acquisition and expression of fear memory was tested at about 6, about 24, and about 48 hours post training. The testing protocol used was the same as the training protocol. Latencies to enter the dark side of the chamber were recorded and used as measurement of IAE performance. Statistical significance was determined using two-way ANOVA and post hoc Student's t-tests.
Mice were evaluated in another hippocampus-associated behavioral paradigm: inhibitory avoidance (IA). IA is a multi-phase test used to assay memory formation and extinction. During the training session (0 hr), mice were placed in the light chamber of a two-chamber box. After a variable latency in the light side, they entered the dark side of the box where about a 2 sec foot-shock was delivered. Acquisition and extinction of the fear memory, as measured by the latency to re-enter the dark chamber from the lighted side, was tested 6 hr (acquisition) as well as about 24 hr and about 48 hr (extinction) after training. Experiments were conducted to determine: (1) if chr7qF3 mice had deficits similar to Fmrl KO mice in the IA test, and (2) if deficits were present, could the mGluR5 inhibitor CTEP treatment ameliorate them. Mice were divided into four groups: WT+vehicle, WT+CTEP, Mut+vehicle, and Mut+CTEP. CTEP was given by the same dosing regime previously used with Fmrl KO mice ((Michalon et al., 2012)).

[4] = test system: pre-synaptic glutamate release, Schaffer collateral-CA1 synapse of hippocampal slices; assay: Paired-pulse facilitation at beginning and end of DHPG-LTD experiment; design: species or system mouse; settings: both WT and mutant slices; independent of CHX treatment
Experimental: as §1
To test whether the difference in CHX sensitivity between WT and mutant slices was due to a different pre-synaptic response to either DHPG treatment or PP-LFS induction, paired pulse facilitation at the beginning and end of DHPG-LTD experiment (FIGS. 2C and 2D) was assessed. […]

## C[C@@H]1C[C@@H]([C@H](O)CC2CC(=O)NC(=O)C2)C(=O)[C@@H](C)C1 [CHX, Cycloheximide]
[1]; WT slices
  effect on DHPG-induced LTD: significantly blocked
[1]; chr7qF3 mutant slices
  effect on DHPG-induced LTD: no effect; also recorded: remains unaffected
[2]; WT slices
  effect on PP-LFS LTD: almost completely blocked
[2]; chr7qF3 mutant slices
  effect on PP-LFS LTD: no effect; also recorded: remains unaffected

## Cc1nc(C#Cc2ccnc(Cl)c2)c(C)n1-c1ccc(OC(F)(F)F)cc1 [CTEP, 2-chloro-4-((2,5-dimethyl-1-(4-(trifluoromethoxy)phenyl)-1H-imidazol-4-yl)ethynyl)pyridine]
[3]; Chr7qF3 mutant mice, 6, 24 and 48 hours post training, chronic oral gavage every other day for 4 weeks
  latency to re-enter the chamber: significantly lengthens
[3]; Mut+CTEP, similar to the two wildtype groups
  extinction of fear memory at 48 hr: significant extinction
[3]; Mut+CTEP, to a level comparable to WT+vehicle mice
  latency to re-enter the dark chamber at 6 hr (acquisition): dramatically lengthened
[3]; WT mice, WT+CTEP vs WT+vehicle
  effect on latency to re-enter the chamber: no effect
[3]; WT+CTEP
  extinction of fear memory at 48 hr: exhibited extinction
[3]; chr7qF3 mutant mice, chronic oral treatment
  cognitive impairment / fear memory deficits in IAE test: significantly ameliorates; also recorded: ameliorated

## N[C@H](C(=O)O)c1cc(O)cc(O)c1 [DHPG, S-3,5-dihydrozyphenylglycine]
[4]
  paired pulse facilitation after DHPG treatment: increased paired pulse facilitation
